We go through 39 compounds from US9233921B2, “Potent poxvirus inhibitor” (priority 2013, dated 2016).

One data set concerns vaccinia virus. The data set can be described thus: microbe, parasite or virus in culture. It is filed as cell-based, Vaccinia virus (WR strain).
The next data set can be described thus: Cytotoxicity (CC50). The conditions noted are these: African green monkey, BSC-1 cells.
Setting [1] is: Orthopoxvirus vaccinia, BSC-1, read-out: IC50 (antiviral).

Like-named read-outs stand apart in the source and are kept apart here.

In the case of `Cc1ccc2c(Sc3ccccc3)c(C(=O)O)[nH]c2c1` [Compound 18, 6-Methyl-3-(phenylthio)-1H-indole-2-carboxylic acid], the “IC50 (antiviral)” value in the data set on vaccinia virus was “abolished its antiviral activity”.

With `CCn1c(C(=O)O)c(Sc2ccc(Cl)cc2)c2cc(C)ccc21` [Compound 3, 3-((4-Chlorophenyl)thio)-1-ethyl-5-methyl-1H-indole-2-carboxylic acid], in the data set with vaccinia virus, the “fold improvement in activity over the corresponding R1 methyl analogs 2 and 4” value amounted to 1.5 fold. Also, the IC50 – broadly, the point on the concentration scale where inhibition reaches its midpoint – with vaccinia virus (setting [1]) is 86 µM.

In the case of `O=C(O)c1[nH]c2cc(Br)ccc2c1Sc1ccc(Cl)cc1` [Compound 1f, 6-Bromo-3-((4-chlorophenyl)thio)-1H-indole-2-carboxylic acid], the IC50 is 40 to 51 µM in the data set on vaccinia virus (setting [1]) and 51 µM in the data set with vaccinia virus (read-out: IC50 (antiviral)). Besides, in “Cytotoxicity (CC50)”, it took 90 µM to reach half-maximal cytotoxicity (CC50).

With `Cc1ccc(C)c2c(Sc3ccc(Cl)cc3)c(C(=O)O)[nH]c12` [Compound 1j, 3-((4-chlorophenyl)thio)-4,7-dimethyl-1H-indole-2-carboxylic acid], the IC50 with vaccinia virus (setting [1]) was found to be 50 µM. The CC50 (as a rule, the concentration that lowers cell viability or growth by half) in “Cytotoxicity (CC50)” is 109 µM.

For `Cc1ccc2c(c1)c(Sc1ccc(Cl)cc1)c(C(=O)O)n2C` [Compound 2, 3-((4-Chlorophenyl)thio)-1,5-dimethyl-1H-indole-2-carboxylic acid], the IC50 with vaccinia virus (setting [1]) was 135 µM.

On to `Cc1cccc2[nH]c(C(=O)O)c(Sc3ccc([N+](=O)[O-])cc3)c12` [Compound 19c, 4-Methyl-3-((4-nitrophenyl)thio)-1H-indole-2-carboxylic acid], for which, in the data set with vaccinia virus, the “IC50 (antiviral)” value is reported as “loss of activity”.

In the case of `CNC(=O)c1[nH]c2cc(C)ccc2c1Sc1cc(Cl)cc(Cl)c1` [Compound 28, 3-((3,5-Dichlorophenyl)thio)-N,6-dimethyl-1H-indole-2-carboxamide], in the data set with vaccinia virus, the “IC50 (antiviral)” value is recorded as “loss of activity”.

With `CCc1ccc2c(Sc3ccc(Cl)c(Cl)c3)c(C(=O)O)[nH]c2c1` [Compound 23, 3-((3,4-Dichlorophenyl)thio)-6-ethyl-1H-indole-2-carboxylic acid], the IC50 in the data set with vaccinia virus (setting [1]) amounted to 42 µM.

For `COc1ccc(Sc2c(C(=O)O)[nH]c3cccc(C)c23)cc1` [Compound 19, 3-((4-Methoxyphenyl)thio)-4-methyl-1H-indole-2-carboxylic acid], the “IC50 (antiviral)” value with vaccinia virus is listed as “failed to show antiviral activities”.

As to `CCn1c(C(=O)OC)c(Sc2ccc(Cl)cc2)c2cc(C)ccc21` [Compound 5, Methyl 3-((4-chlorophenyl)thio)-1-ethyl-5-methyl-1H-indole-2-carboxylate], in the data set with vaccinia virus, the “fold improvement in activity of 5 over 3” value was 2 fold; the “fold improvement in activity over the corresponding R1 methyl analogs 2 and 4” value is listed as 4 fold. Moreover, the IC50 in the data set with vaccinia virus (setting [1]) was 39 µM.

Take `Cc1ccc(Sc2c(C(=O)O)[nH]c3cccc(C)c23)cc1` [Compound 19a, 4-Methyl-3-(p-tolylthio)-1H-indole-2-carboxylic acid]: the “IC50 (antiviral)” value in the data set with vaccinia virus was “failed to show antiviral activities”.

For the compound `COc1cccc2[nH]c(C(=O)O)c(Sc3ccc(Cl)cc3)c12` [Compound 1i, 3-((4-Chlorophenyl)thio)-4-methoxy-1H-indole-2-carboxylic acid], in the data set on vaccinia virus, the “IC50 (antiviral)” value was “loss of activity”.

As for `O=C(O)c1[nH]c2cc(F)ccc2c1Sc1ccc(Cl)cc1` [Compound 1g, 6-Fluoro-3-((4-chlorophenyl)thio)-1H-indole-2-carboxylic acid], the IC50 in the data set with vaccinia virus (setting [1]) is 40 to 51 µM; in the data set on vaccinia virus (read-out: IC50 (antiviral)), 40 µM.

As to `Cc1ccc2c(Sc3cccc(Cl)c3)c(C(=O)O)[nH]c2c1` [Compound 18a, 3-((3-Chlorophenyl)thio)-6-methyl-1H-indole-2-carboxylic acid], in the data set on vaccinia virus (setting [1]), the IC50 came to 51 µM.

On to `COC(=O)c1[nH]c2c(C)cccc2c1Sc1ccc(Cl)cc1` [Compound 8, Methyl 3-((4-chlorophenyl)thio)-7-methyl-1H-indole-2-carboxylate], for which the IC50 with vaccinia virus (setting [1]) is 23 µM. For the same compound, in the data set “Cytotoxicity (CC50)”, half-maximal cytotoxicity (CC50) was put at 32 µM.

As for `Cc1ccc2c(Sc3ccc(Cl)cc3Cl)c(C(=O)O)[nH]c2c1` [Compound 20, 3-((2,4-Dichlorophenyl)thio)-6-methyl-1H-indole-2-carboxylic acid], the “fold activity improvement over the parent 1” value (“fold activity improvement” below) in the data set with vaccinia virus was 2-11 fold. The same compound displayed a CC50 in the data set “Cytotoxicity (CC50)” of 129 µM.

As for `O=C(O)c1[nH]c2ccccc2c1Sc1ccc(Cl)cc1` [Compound 1d, 3-(4-Chlorophenylthio)-1H-indole-2-carboxylic acid], the “IC50 (antiviral)” value in the data set on vaccinia virus was “loss of activity”.

For `Cc1cccc2c(Sc3cc(Cl)c(Cl)cc3Cl)c(C(=O)O)[nH]c12` [Compound 30a, 7-Methyl-3-((2,4,5-trichlorophenyl)thio)-1H-indole-2-carboxylic acid], the IC50 with vaccinia virus (setting [1]) was 21 µM. For the same compound, in the data set “Cytotoxicity (CC50)”, the midpoint of cytotoxicity, the CC50, lay at 93 µM.

On to `COC(=O)c1[nH]c2cccc(C)c2c1Sc1ccc(Cl)cc1` [Compound 9, Methyl 3-((4-chlorophenyl)thio)-4-methyl-1H-indole-2-carboxylate], for which the IC50 in the data set on vaccinia virus (setting [1]) worked out at 21 µM.

Consider “3-((3,5-Dichlorophenyl)thio)-6-methyl-1H-indole-2-carboxylate [Compound 27]”, for which the “IC50 (antiviral)” value in the data set on vaccinia virus is listed as “loss of activity”.

As for `Cc1ccc2c(Sc3cc(Cl)c(Cl)cc3Cl)c(C(=O)O)[nH]c2c1` [Compound 30, 6-Methyl-3-((2,4,5-trichlorophenyl)thio)-1H-indole-2-carboxylic acid], in the data set on vaccinia virus (setting [1]), the half-maximal inhibitory concentration (IC50) is 25 µM. This compound showed a CC50 in the data set “Cytotoxicity (CC50)” of 78 µM.

As to `Cc1cccc2[nH]c(C(=O)O)c(Sc3cc(Cl)c(Cl)cc3Cl)c12` [Compound 30b, 4-Methyl-3-((2,4,5-trichlorophenyl)thio)-1H-indole-2-carboxylic acid], the IC50 in the data set with vaccinia virus (setting [1]) was 18 µM. For the same compound, the CC50 in the data set “Cytotoxicity (CC50)” was determined as 65 µM.

As for `Cc1ccc2c(Sc3ccc(C(=O)O)cc3)c(C(=O)O)[nH]c2c1` [Compound 18f, 3-((4-Carboxyphenyl)thio)-6-methyl-1H-indole-2-carboxylic acid], the “IC50 (antiviral)” value in the data set with vaccinia virus is on record as “loss of activity”.

On to `COc1ccc(Sc2c(C(=O)O)[nH]c3cc(C)ccc23)cc1` [Compound 18e, 3-((4-Methoxyphenyl)thio)-6-methyl-1H-indole-2-carboxylic acid], for which the “IC50 (antiviral)” value in the data set on vaccinia virus is “failed to show antiviral activities”.

For `Cc1ccc2c(Sc3cccc(F)c3)c(C(=O)O)[nH]c2c1` [Compound 18b, 3-((3-Fluorophenyl)thio)-6-methyl-1H-indole-2-carboxylic acid], the IC50 with vaccinia virus (setting [1]) amounted to 56 µM; with vaccinia virus (read-out: IC50 (antiviral)), 69 µM.

In the case of `O=C(O)c1[nH]c2ccccc2c1Sc1cc(Cl)cc(Cl)c1` [Compound 26, 3-((3,5-Dichlorophenyl)thio)-1H-indole-2-carboxylic acid], the “fold decrease in activity compared to 24” value in the data set on vaccinia virus is given as approximately 6 fold. For the same compound, the IC50 with vaccinia virus (setting [1]) worked out at 43 µM. The midpoint of cytotoxicity in the data set “Cytotoxicity (CC50)”, the CC50, lay at 133 µM.

For the compound `O=C(O)c1[nH]c2cc(Cl)ccc2c1Sc1ccc(Cl)cc1` [Compound 1e, 6-Chloro-3-((4-chlorophenyl)thio)-1H-indole-2-carboxylic acid], the figures for the IC50 in the data set with vaccinia virus (setting [1]) and in the data set with vaccinia virus (read-out: IC50 (antiviral)) were 40 to 51 µM and 47 µM, respectively. In “Cytotoxicity (CC50)”, it took 138 µM to reach half-maximal cytotoxicity (CC50).

On to `COC(=O)c1ccc(Sc2c(C(=O)O)[nH]c3cccc(C)c23)cc1` [Compound 19b, 3-((4-(Methoxycarbonyl)phenyl)thio)-4-methyl-1H-indole-2-carboxylic acid], for which the “IC50 (antiviral)” value in the data set on vaccinia virus is on record as “failed to show antiviral activities”.

Take `Cc1ccc2c(Sc3cc(Cl)cc(Cl)c3)c(C(=O)O)[nH]c2c1` [Compound 24, 3-((3,5-Dichlorophenyl)thio)-6-methyl-1H-indole-2-carboxylic acid]: in the data set with vaccinia virus, the “SI (selectivity index = CC50/IC50)” value worked out at 11 and the “fold activity improvement” value is 2-11 fold. For the same compound, half-maximal inhibition in the data set on vaccinia virus (Orthopoxvirus vaccinia) (IC50) was put at 7 µM. Further, the IC50 in the data set on vaccinia virus (setting [1]) was in the range of 7 to 37 µM. In “Cytotoxicity (CC50)”, this compound displayed a CC50 of 75 µM.

For `CCc1ccc2c(Sc3cc(Cl)cc(Cl)c3)c(C(=O)O)[nH]c2c1` [Compound 25, 3-((3,5-Dichlorophenyl)thio)-6-ethyl-1H-indole-2-carboxylic acid], the IC50 with vaccinia virus (setting [1]) was found to be 9 µM. The compound further yielded a CC50 in the data set “Cytotoxicity (CC50)” of 63 µM.

As for `Cc1ccc2c(Sc3ccc(Br)cc3)c(C(=O)O)[nH]c2c1` [Compound 18c, 3-((4-Bromophenyl)thio)-6-methyl-1H-indole-2-carboxylic acid], the “IC50 (antiviral)” value in the data set on vaccinia virus is recorded as “loss of activity”. In addition, in the data set “Cytotoxicity (CC50)”, the half-maximal cytotoxic concentration (CC50) is 133 µM.

Regarding `Cc1cccc2c(Sc3ccc(Cl)cc3)c(C(=O)O)[nH]c12` [Compound 1c, 3-((4-Chlorophenyl)thio)-7-methyl-1H-indole-2-carboxylic acid], the IC50 was 46 to 86 µM in the data set on vaccinia virus (setting [1]) and 74 µM in the data set on vaccinia virus (read-out: IC50 (antiviral)).

`Cc1ccc2c(Sc3ccc(C(F)(F)F)cc3[N+](=O)[O-])c(C(=O)O)[nH]c2c1` [Compound 31, 6-Methyl-3-((2-nitro-4-(trifluoromethyl)phenyl)thio)-1H-indole-2-carboxylic acid]: the “IC50 (antiviral)” value in the data set on vaccinia virus is given as “loss of activity”.

Regarding `Cc1ccc2c(Sc3ccc(C(F)(F)F)cc3)c(C(=O)O)[nH]c2c1` [Compound 18g, 6-Methyl-3-((4-(trifluoromethyl)phenyl)thio)-1H-indole-2-carboxylic acid], the IC50 in the data set with vaccinia virus (setting [1]) turned out to be 33 µM. Also, in “Cytotoxicity (CC50)”, the CC50 stood at 137 µM.

For the compound `Cc1cccc2c(Sc3ccc(Cl)c(Cl)c3)c(C(=O)O)[nH]c12` [Compound 22, 3-((3,4-Dichlorophenyl)thio)-7-methyl-1H-indole-2-carboxylic acid], the “fold activity improvement” value in the data set on vaccinia virus is listed as 2-11 fold. Moreover, the CC50 in the data set “Cytotoxicity (CC50)” amounted to 150 µM.

As for `CCc1ccc2c(Sc3ccc(Cl)cc3)c(C(=O)O)[nH]c2c1` [Compound 1h, 3-((4-Chlorophenyl)thio)-6-ethyl-1H-indole-2-carboxylic acid], the IC50 in the data set with vaccinia virus (setting [1]) was 36 µM.

In the case of `Cc1ccc(Sc2c(C(=O)O)[nH]c3cc(C)ccc23)cc1` [Compound 18d, 6-Methyl-3-(p-tolylthio)-1H-indole-2-carboxylic acid], the “IC50 (antiviral)” value with vaccinia virus is “failed to show antiviral activities”.

`Cc1cccc2[nH]c(C(=O)O)c(Sc3ccc(Cl)cc3)c12` [Compound 1a, 3-((4-Chlorophenyl)thio)-4-methyl-1H-indole-2-carboxylic acid]: the IC50 was 46 to 86 µM in the data set on vaccinia virus (setting [1]) and 86 µM with vaccinia virus (read-out: IC50 (antiviral)).

Consider `COC(=O)c1c(Sc2ccc(Cl)cc2)c2cc(C)ccc2n1C` [Compound 4, Methyl 3-((4-chlorophenyl)thio)-1,5-dimethyl-1H-indole-2-carboxylate], for which the IC50 in the data set on vaccinia virus (setting [1]) worked out at 163 µM.
